Measured values published in PMC8955307, “Nucleobase-Derived Nitrones: Synthesis and Antioxidant and Neuroprotective Activities in an In Vitro Model of Ischemia–Reperfusion” (International Journal of Molecular Sciences, 2022).
Like-named read-outs stand apart in the source and are kept apart here.

Key:
[1] = tested on: human neuroblastoma SH-SY5Y cells; assay: Superoxide radical production (DHE fluorescence) after OGD and 3 h OGR (IR); type: cell-based; settings: OGD + 3 h OGR (IR); for EC50: compounds 0.1 to 1000 μM, read-out: Antioxidant Activity EC50 ± SEM (superoxide production); for Emax: read-out: Maximal Activity mean±SEM (antioxidant)
Procedure: A density of 2–2.5 × 10^5 SHSY5Y cells/well was used to seed in 48-well plates to quantify superioxide anion formation. Firstly, cultured cells were exposed to OGD treatment for 3–4 h or maintained in normoxic conditions (controls). Thereafter, medium was replaced with oxygenated Dulbecco’s: Ham’s F12 medium with glucose, 1% Antibiotic-Antimycotic, 1% Gentamicin and 10% FCS. Cells were incubated in the absence (controls) or presence of indicated concentrations of the compounds of study, at 37 °C for 3 h. […] For every condition, the linear regression of fluorescence data (expressed in arbitrary fluorescence units, AFU) was calculated, and the slopes (a) of the best fitting lines (y = ax) were considered as an index of superoxide production, as described previously.

[2] = target: T1, Soybean Lipoxygenase (SLOX) (Glycine max, UniProt P08170); assay: In vitro inhibition of soybean lipoxygenase (UV absorbance-based enzyme assay); type: biochemical; settings: for IC50: soybean LOX, sodium linoleate substrate, pH 9
T1 sequence (P08170 1-839): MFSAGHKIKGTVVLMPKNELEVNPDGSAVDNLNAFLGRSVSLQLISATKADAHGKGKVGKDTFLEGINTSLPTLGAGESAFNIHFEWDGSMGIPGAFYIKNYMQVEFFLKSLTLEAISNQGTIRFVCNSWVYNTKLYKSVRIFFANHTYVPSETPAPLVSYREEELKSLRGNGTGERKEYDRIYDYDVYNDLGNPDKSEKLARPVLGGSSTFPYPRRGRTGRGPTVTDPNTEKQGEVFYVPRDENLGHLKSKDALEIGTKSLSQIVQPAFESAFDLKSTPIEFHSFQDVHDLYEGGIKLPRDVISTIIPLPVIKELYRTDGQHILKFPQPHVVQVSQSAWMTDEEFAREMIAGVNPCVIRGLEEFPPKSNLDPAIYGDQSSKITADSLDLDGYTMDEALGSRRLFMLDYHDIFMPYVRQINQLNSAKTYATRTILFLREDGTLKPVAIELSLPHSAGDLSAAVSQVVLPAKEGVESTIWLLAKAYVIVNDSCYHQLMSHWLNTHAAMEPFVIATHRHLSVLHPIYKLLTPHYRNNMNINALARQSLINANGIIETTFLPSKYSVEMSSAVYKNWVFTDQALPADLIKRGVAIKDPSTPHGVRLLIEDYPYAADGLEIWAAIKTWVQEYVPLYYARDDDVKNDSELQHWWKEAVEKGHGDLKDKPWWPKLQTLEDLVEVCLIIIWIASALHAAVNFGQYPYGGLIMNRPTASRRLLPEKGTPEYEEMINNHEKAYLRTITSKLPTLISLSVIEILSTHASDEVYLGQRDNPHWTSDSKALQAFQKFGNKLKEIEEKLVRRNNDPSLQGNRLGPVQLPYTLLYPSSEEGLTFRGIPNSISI
Procedure: The experimental conditions followed our previously reported protocol. Sodium linoleate was used as a substrate (0.1 mM) with 0.2 mL of the saline solution of SLOX (1/9 × 10^−4 w/v) in the Tris buffer pH 9.

[3] = Hydroxyl radical scavenging (competition with DMSO); settings: tested at 100 µM
Procedure: The competition of the tested nitrones (100 µM) with DMSO (33 mM) in the phosphate buffer (50 mM), pH 7.4, was used. The hydroxyl radicals were generated by the Fe^3+/ascorbic acid system (EDTA 0.1 mM, Fe^3+ 167 µM, ascorbic acid 10 mM), and the samples were incubated at 37 °C/30 min. A 17% w/v solution of CCl3CO2H was used to stop the radical propagation. The percentage scavenging activity was compared to Trolox used as a reference.

[4] = ABTS radical cation decolorization assay; settings: tested at 100 µM
Procedure: Approximately 10 µL of the tested compounds in DMSO (100 µM final concentration) were mixed with 200 µL of ABTS∙^+ (100 mM) and 790 µL absolute ethanol. The absorbance value was recorded 1 min after mixing at 734 nm and compared to Trolox.

SMILES: Cc1cn(C/C=[N+](/C)[O-])c(=O)[nH]c1=O [9b]
- EC50 ([1]; Homo sapiens): 0.72 ± 0.16 µM
- Emax ([1]; Homo sapiens): 100 ± 2.26%
- IC50 [2]: 79 µM
- OH (%) scavenging [3]: 73%
- ABTS+ (%) [4]: 14%

SMILES: C/[N+]([O-])=C/Cn1cc(Br)c(=O)[nH]c1=O [9d]
- EC50 ([1]; Homo sapiens): 46.4 ± 9.49 µM
- Emax ([1]; Homo sapiens): 114 ± 7.72%
- IC50 [2]: 35 µM
- OH (%) scavenging [3]: 90%
- ABTS+ (%) [4]: 12%

SMILES: C/[N+]([O-])=C/Cn1cc(Cl)c(=O)[nH]c1=O [9e]
- EC50 ([1]; Homo sapiens): 12.9 ± 1.43 µM
- Emax ([1]; Homo sapiens): 89.3 ± 5.33%
- IC50 [2]: 65 µM
- OH (%) scavenging [3]: 87%
- ABTS+ (%) [4]: 19%

SMILES: C/[N+]([O-])=C/Cn1cnc2c(N)ncnc21 [9f]
- EC50 ([1]; Homo sapiens): 1.4 ± 0.66 µM
- Emax ([1]; Homo sapiens): 106 ± 9.39%
- IC50 [2]: 31 µM
- OH (%) scavenging [3]: 66%
- ABTS+ (%) [4]: 6%

SMILES: C/[N+]([O-])=C/Cn1cc(Br)c(=O)n(C/C=[N+](/C)[O-])c1=O [9i]
- EC50 ([1]; Homo sapiens): 1.12 ± 0.13 µM
- Emax ([1]; Homo sapiens): 107 ± 2.72%
- IC50 [2]: 57.5 µM
- OH (%) scavenging [3]: inactive and No
- ABTS+ (%) [4]: 75%

SMILES: CC(C)(C)[N+]([O-])=Cc1ccccc1 [PBN, α-phenyl-N-tert-butylnitrone, reference compound]
- Maximal Activity mean±SEM (antioxidant) [1]: 93.57±2.94%
- EC50 [1]: 5.86 ± 0.63 µM
- LOX (%) inhibition ([2]; tested at 100 µM): 23%
- OH (%) scavenging [3]: no
- ABTS+ (%) [4]: 5%
